Like-named read-outs stand apart in the source and are kept apart here.
Assays:
[1] = tested on: MM.1S cells co-cultured with BMSCs; assay: 3[H]-thymidine incorporation, MM.1S co-cultured with BMSCs; type: cell-based, human; details: 7.5, 15, 30 μM, 48 hours (FIG. 6D)
Experimental: To measure proliferation of MM cells, the rate of DNA synthesis was measured by ^3[H]-thymidine (Perkin-Elmer) uptake. […] Cell proliferation was measured by 3[H]-thymidine incorporation assay. Data represent mean±SD from quadruplicate cultures (FIG. 6D).

HDAC3 = HDAC3 (Homo sapiens, UniProt O15379); assay: HDAC3 inhibitory activity (IC50); type: biochemical
Experimental: HDAC inhibitor compounds designed and synthesized in accordance with the present invention were tested for their inhibitor activity against several different HDAC isoforms.

pERK1/2 (Thr202/204) = assay: Immunoblot of ERK phosphorylation; type: cell-based, human; details: MM.1S, 10 and 20 μM, 10 hours, then IL-6 10 ng/mL 4 hours (FIG. 6G)
pSTAT3 (Tyr705) = assay: Immunoblot of STAT3 phosphorylation in MM cells; type: cell-based, human; details: MM.1S, 10 and 20 μM, 10 hours, then IL-6 10 ng/mL 4 hours (FIG. 6G)
Experimental: MM cells were harvested and lysed using sodium dodecyl sulfate-polyacrylamide gel electrophoresis (SDS-PAGE) sample buffer containing 60 mM Tris-HCl, pH 6.8, 2% SDS, 10% glycerol, 0.005% bromophenol blue, 5 mM ethylenediaminetetraacetic acid, 5 mM NaF, 2 mM […], 1 mM phenylmethylsulfonyl fluoride (PMSF), 5 μg/mL leupeptin, and 5 μg/mL aprotinin; and then heated at 100° C. for 5 min. After the determination of protein concentration using DC protein assay (Bio-Rad, Hercules, Calif.), β-mercaptoethanol (β-ME) was added to the whole-cell lysates to a 2% final β-ME concentration. The whole-cell lysates were subjected to SDS-PAGE, transferred to nitrocellulose membranes (Bio-Rad, Hercules, Calif.) or polyvinylidene fluoride membranes (Millipore, Billerica, Mass.), and immunoblotted with anti-histone H3, -HDAC1, -HDAC2, -HDAC3, -Acetyl-histone H2A (Lysine 5) (Ac-H2AK5), -Acetyl-histone H2B (lysine 5) (Ac-H2 BK5), -Acetyl-histone H3 (lysine 9) (Ac-H3K9), -Acetyl-histone H4 (lysine 8) (Ac-H4K8), -glyceraldehyde-3-phosphate dehydrogenase (GAPDH), -poly (ADP-ribose) polymerase (PARP), -caspase-3, -caspase-8, -caspase-9, -Signal transducers and activators of transcription 3 (STAT3), -phospho-STAT3 (pSTAT3) (tyrosine 705), -pSTAT3 (serine 727), -p21, -Janus kinase 2 (JAK2), -acetylated-Lysine (Ac-K), and anti-phosphorylated-tyrosine antibodies (Abs; Cell Signaling Technology, Beverly, Mass.).
MM.1S, U266, and INA6 cells were cultured with DMSO control or LBH589 (50 and 100 nM) for 8 h.
MM.1S cells pretreated with or without 50 nM LBH589 for 8 hours were then treated with IL-6 (10 ng/mL) or BMSC culture supernatants (#1 and #2) for 15 minutes. Whole cell lysates were subjected to immunoblotting with anti-pSTAT3 (Tyr705) and STAT3 Abs.
In addition, INA-6 cells were cultured with DMSO control, LBH589 (50 nM), TSA (1 μM) or SAHA (2 μM) for 8 hours. Whole cell lysates were subjected to immunoblotting with anti-pSTAT3 (Tyr705), STAT3, and GAPDH Abs.
Whole cell lysates were subjected to immunoblotting with anti-pSTAT3 (Tyr705), -STAT3, -pERK1/2 (Thr202/204), and -ERK1/2 Abs (FIG. 6G).
See, e.g., Hideshima et al. Blood. 2006, 107:4053-4062. Since bortezomib upregulates activated STAT3 in head and neck squamous cell carcinoma (see, e.g., Li et al. Mol Cancer Ther 2009. 8:2211-2220), experiments were conducted to test whether bortezomib enhances p-STAT3 in MM cells. RPMI8226 cells were infected with Luc, HDAC1 (sh1), HDAC2 (sh1) or HDAC3 (sh1) shRNAs and then treated with or without bortezomib (5 nM) for 6 hours. Whole cell lysates were subjected to immunoblotting with anti-STAT3, -pSTAT3 (Tyr705), -pERK1/2 (Thr202/204) and -ERK1/2 Abs.

Sequence of HDAC3 (O15379 whole entry): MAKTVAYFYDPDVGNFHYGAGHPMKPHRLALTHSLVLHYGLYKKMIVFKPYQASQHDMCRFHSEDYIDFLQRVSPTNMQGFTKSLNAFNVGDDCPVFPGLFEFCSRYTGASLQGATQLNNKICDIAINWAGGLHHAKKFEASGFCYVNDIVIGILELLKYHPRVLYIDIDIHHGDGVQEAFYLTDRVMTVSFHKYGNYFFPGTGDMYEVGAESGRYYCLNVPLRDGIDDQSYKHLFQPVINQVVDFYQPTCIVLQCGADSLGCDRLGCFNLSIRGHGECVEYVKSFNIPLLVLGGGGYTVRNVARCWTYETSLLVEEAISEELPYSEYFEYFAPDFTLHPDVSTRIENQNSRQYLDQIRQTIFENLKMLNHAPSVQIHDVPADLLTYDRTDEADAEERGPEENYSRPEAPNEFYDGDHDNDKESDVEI
Sequence of HDAC3 (Q9Y618 395-489 partner limits assumed): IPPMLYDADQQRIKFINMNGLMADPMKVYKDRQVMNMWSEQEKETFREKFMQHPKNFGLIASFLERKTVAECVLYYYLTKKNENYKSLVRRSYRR

## Nc1ccccc1NC(=O)c1cnccn1 [Compound 10, N-(2-aminophenyl)pyrazine-2-carboxamide]
[1]
  MM cell proliferation in the presence of BMSCs: markedly inhibited MM cell growth even in the presence of BMSCs
HDAC3; Example 8, read-out: HDAC3 IC50
  IC50: 0.289 µM
HDAC3; Table 2, read-out: HDAC3
  IC50: 0.14 µM
pERK1/2 (Thr202/204)
  p-ERK1/2: without affecting p-ERK1/2
pSTAT3 (Tyr705)
  p-STAT3: markedly downregulated p-STAT3
